Laboratory results as given in patent publication US10265298B2, “Method of increasing the bioavailability of silybin” (Macau University of Science and Technology, priority 2017, dated 2019).

Legend:
[1] = biological target: MDR1 (P-gp) (Homo sapiens, UniProt P08183); experiment: cell-based
Description: (§1) Parental Madin-Darby canine kidney II (MDCKII), multi-drug resistance gene 1-Madin-Darby canine kidney II (MDR1-MDCKII), breast cancer resistance protein-Madin-Darby canine kidney II (BCRP-MDCKII), and multi-drug resistance protein 2-Madin-Darby canine kidney II (MRP2-MDCKII) cells were kindly provided by the Netherlands Cancer Institute (Amsterdam, Netherlands) and frozen at −80° C. The MDCKII cells were cultured at 37° C./5% CO2 in Dulbecco's modified Eagle's medium supplemented with 10% fetal bovine serum, 1% nonessential amino acids, and 2% penicillin-streptomycin. The cells were seeded on transwell inserts (Corning Inc.) at a density of 2.0×10^5 cells/cm^2 and grown for 4-5 days to form confluent monolayers.
(§2) Bidirectional transport assays in human colorectal adenocarcinoma 2 (Caco-2) and Madin-Darby canine kidney II (MDCK II) was carried out by dosing substrates in assay buffer to either the apical chamber (A-to-B) or the basolateral chamber (B-to-A); cells were then incubated at 37° C. with shaking at 50 rotations per minute (rpm), and 100 μl samples were collected at 30, 60, 90, 120 and 180 minutes from the basolateral chamber to study the drug transport of AP to BL, or apical chamber to study the drug transport of BL to AP. Cell monolayers were then washed twice with ice-cold assay buffer and lysed with methanol on ice for 10 minutes. For inhibition studies, Caco-2 or MDCK II cell monolayers were pre-incubated with an inhibitor in both apical and basolateral chambers for 30 minutes, and bidirectional transport of 10 μM silybin was conducted in the absence (control) or presence of the inhibitor in both chambers. […] For fluorescence intensity detection, samples collected from AP or BL side were immediately detected in 96 well black plate by Microplate ultraviolet-visible spectroscopy (UV/VIS) spectrophotometer (TECAN infinite M200 PRO, Männedorf, Switzerland). In all cases, each determination was performed in triplicate.
(§3) The apparent permeability coefficients (Papp) were calculated as Papp=dQ/dt×1/(C“0”A) where dQ/dt (mM/sec) is the rate of permeation of the drug across the cells, C0 (millimolar (mM)) is the donor compartment concentration at time zero and A (cm^2) is the area of the cell monolayer. C0 is obtained from analysis of the dosing solution at the start experiment. Efflux Ratio (ER)=Papp (B to A)/Papp (A to B), while Papp (B−A) is the Papp value measured in the B to A direction, and Papp (A−B) is the Papp value measured in the A to B direction. 1.5 Preparation of Rat Sandwich-Cultured Hepatocytes
(§4) (*, P<0.05;**, P<0.01; ***, P<0.001 vs absence of any inhibitor. n=3).
as §4

[2] = biological target: MRP2 (Homo sapiens, UniProt Q92887); experiment: cell-based; conditions: for efflux ratio of CDCFDA in the presence of inhibitor: dog, 180 min
Description: as §1, §2, §3, §4, §4

[3] = in vivo, po; for Cmax of free silybin / mean Cmax of total silybin (parent plus sulfate and glucuronide conjugates): rat
Description: The rats were randomly divided into three groups with six rats in each group. The oral administration dosages of silybin were 10 and 50 mg/10 ml/kg body weight without or with baicalein/tangeretin at the same dosage. Before experimentation, the animals were fasted for 24 hours with water ad libitum, and maintained at a temperature of 21° C. with 70% relative humidity and a 12 hour light/dark cycle. After oral administration, tail vein blood samples were collected (0.1 ml) into heparinized 0.65 ml micro-centrifuge tubes at the following time intervals: 0, 15, 30, 45, 60, 90, 120, 240, 360, 480, and 720 minutes. The blood samples then were immediately centrifuged at 4,000 rotations per minute (rpm) for 15 minutes at 4 degrees Celsius (° C.), and the resulting plasma was collected and stored at −80° C. until analysis.
To estimate the concentration of total glucuronide and sulfate conjugates of silybin in bio-samples including plasma, cell, and media, enzymatic hydrolysis with […] (8000 U/ml) and sulfatase (80 units per milliliter (U/ml)) was performed with 10 microliter (μl) aliquot of samples. The reactions were terminated by the addition of 40 μl of ice-cold acetonitrile containing 1% glacial acetic acid and internal standard NG (25 ng/ml). After centrifugation at 13,500 rotations per minute (rpm) for 15 minutes at 4° C., the supernatants were evaporated to dryness by nitrogen evaporator, and the residue was reconstituted with 60 μl of 30% methanol in water containing 1% ascorbic acid. An aliquot of 10 μl of the final solution was injected into LC-MS/MS for analysis. The completion of de-conjugation reaction was monitored by mass spectrometry. In parallel, 10 μl aliquots of samples without enzymes were treated with 40 μl of ice-cold acetonitrile containing 1% glacial acetic acid and naringenin (NG) (25 nanogram per milliliter (ng/ml)) to determine the concentration of free silybin. The total concentrations of glucuronides and sulfates in samples were estimated from the difference between the amount of silybin released by incubation with both glucuronidase and sulfatase and the amount of free silybin without enzymes incubation.
The analysis of silybin and total concentrations of glucuronides and sulfates was performed on an Agilent HP 1100 LC-MS system (Agilent, CA). A Waters ACQUITY UPLC® BEH C18 Column (1.7 μm, 2.1×50 mm, Waters Corp., Ireland) was used for detection with a C18 Security Guard cartridge (4×2.0 mm i.d., Phenomenex, Torrance, Calif.). Silybin A and silybin B were well separated using optimized gradient elution with methanol (mobile phase B) and 0.1% formic acid in water (mobile phase A) as mobile phase at a flow rate of 0.4 ml/min with a run time of 10 minutes. The gradient employed was as follows (time: mobile phase B percentage): 0 min: 25%, 6 minutes: 40%, 6.5 minutes: 25%.
Pharmacokinetic parameters including half-life (T1/2), volume of distribution (Vd), oral clearance (CL/F), and area under the concentration-time curve (AUC) were calculated using the software package PK Solutions 2.0.2 (SUMMIT Co., Ashland, Ohio, USA) with non-compartment analysis. One-way analysis of variance (ANOVA) was used when multiple groups were compared and the Bonferroni post hoc correction was used to accommodate multiple testing. The two-sided unpaired Student's t-test was used when treatments or differences between two groups were compared. […] During all statistical analyses, differences in group sizes were considered in the calculations. Differences were considered statistically significant when P<0.05. All data is presented as geometric mean±S.D.

Chain of MRP2 (Q92887 whole entry): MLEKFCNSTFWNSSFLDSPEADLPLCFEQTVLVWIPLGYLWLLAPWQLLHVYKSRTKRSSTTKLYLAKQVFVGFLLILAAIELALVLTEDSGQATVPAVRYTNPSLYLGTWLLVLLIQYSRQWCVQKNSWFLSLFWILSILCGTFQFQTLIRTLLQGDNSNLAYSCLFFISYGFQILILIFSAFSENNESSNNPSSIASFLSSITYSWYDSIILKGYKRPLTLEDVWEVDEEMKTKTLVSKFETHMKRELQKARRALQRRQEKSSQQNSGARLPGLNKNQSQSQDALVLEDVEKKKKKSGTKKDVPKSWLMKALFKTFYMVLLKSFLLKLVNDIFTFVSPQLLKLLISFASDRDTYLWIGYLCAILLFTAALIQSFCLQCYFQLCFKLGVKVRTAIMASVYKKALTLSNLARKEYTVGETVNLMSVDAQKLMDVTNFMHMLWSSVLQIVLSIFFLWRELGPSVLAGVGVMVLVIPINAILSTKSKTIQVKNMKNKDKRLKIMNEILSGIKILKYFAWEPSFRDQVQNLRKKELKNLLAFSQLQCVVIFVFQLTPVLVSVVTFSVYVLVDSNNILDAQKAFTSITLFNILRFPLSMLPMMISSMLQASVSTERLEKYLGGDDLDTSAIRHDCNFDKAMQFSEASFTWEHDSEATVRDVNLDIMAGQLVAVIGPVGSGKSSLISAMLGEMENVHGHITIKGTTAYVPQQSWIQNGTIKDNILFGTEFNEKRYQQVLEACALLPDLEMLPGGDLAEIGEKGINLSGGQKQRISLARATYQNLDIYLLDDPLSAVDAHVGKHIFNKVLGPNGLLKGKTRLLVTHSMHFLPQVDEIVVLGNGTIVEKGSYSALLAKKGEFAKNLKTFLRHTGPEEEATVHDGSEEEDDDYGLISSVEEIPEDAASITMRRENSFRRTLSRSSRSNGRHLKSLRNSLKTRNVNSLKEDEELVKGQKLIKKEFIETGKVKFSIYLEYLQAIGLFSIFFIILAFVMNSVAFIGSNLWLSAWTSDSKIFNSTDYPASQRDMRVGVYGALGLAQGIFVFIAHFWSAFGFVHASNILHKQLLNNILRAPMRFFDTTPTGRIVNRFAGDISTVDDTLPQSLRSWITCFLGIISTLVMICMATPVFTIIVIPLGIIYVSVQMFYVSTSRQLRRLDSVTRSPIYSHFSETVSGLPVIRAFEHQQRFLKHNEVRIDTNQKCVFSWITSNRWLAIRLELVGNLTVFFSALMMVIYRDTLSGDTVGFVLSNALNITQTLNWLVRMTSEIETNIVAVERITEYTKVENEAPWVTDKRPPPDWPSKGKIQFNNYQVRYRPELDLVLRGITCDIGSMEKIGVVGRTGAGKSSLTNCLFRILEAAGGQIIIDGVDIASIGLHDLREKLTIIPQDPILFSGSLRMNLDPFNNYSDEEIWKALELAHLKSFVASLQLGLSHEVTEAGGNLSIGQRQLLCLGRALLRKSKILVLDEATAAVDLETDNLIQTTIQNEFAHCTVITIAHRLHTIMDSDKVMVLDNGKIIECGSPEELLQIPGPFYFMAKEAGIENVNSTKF
Chain of MDR1 (P-gp) (P08183 whole entry): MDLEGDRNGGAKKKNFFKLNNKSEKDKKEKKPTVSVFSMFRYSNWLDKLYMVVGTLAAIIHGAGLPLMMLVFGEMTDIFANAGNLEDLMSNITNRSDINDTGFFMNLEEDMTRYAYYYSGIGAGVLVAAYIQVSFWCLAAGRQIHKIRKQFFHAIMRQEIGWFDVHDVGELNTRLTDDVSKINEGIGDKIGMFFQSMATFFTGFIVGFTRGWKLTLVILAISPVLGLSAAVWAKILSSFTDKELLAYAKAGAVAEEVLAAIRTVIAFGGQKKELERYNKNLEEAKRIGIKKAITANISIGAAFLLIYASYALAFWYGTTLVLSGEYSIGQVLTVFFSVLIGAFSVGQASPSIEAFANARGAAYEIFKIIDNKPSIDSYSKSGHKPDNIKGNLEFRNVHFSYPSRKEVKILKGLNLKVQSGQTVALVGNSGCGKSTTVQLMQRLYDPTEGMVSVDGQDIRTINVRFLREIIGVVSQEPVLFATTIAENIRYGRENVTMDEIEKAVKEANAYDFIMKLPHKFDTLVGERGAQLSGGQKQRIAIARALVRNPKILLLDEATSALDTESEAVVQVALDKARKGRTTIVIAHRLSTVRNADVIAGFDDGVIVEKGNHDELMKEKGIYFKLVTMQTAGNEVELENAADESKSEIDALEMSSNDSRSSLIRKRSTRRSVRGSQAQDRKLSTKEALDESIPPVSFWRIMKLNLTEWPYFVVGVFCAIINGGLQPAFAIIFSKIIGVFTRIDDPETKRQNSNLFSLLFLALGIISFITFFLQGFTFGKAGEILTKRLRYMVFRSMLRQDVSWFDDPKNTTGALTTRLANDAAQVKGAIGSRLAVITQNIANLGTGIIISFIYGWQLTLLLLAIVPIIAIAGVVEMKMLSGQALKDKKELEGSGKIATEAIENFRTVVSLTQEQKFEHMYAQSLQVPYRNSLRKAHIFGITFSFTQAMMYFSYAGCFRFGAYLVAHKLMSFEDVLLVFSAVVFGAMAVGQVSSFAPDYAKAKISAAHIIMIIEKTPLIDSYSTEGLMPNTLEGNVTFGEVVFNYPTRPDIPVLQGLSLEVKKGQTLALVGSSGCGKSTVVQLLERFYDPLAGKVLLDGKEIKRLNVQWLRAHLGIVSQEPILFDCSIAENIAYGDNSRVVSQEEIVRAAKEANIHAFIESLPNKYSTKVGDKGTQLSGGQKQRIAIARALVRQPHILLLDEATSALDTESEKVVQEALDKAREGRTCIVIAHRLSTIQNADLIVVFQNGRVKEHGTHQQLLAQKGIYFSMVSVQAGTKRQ

Row | Compound | IC50 [1] | IC50 [2] | efflux ratio of CDCFDA in the presence of inhibitor [2] | fraction existing as conjugates in rat plasma [3] | Cmax of free silybin [3] | mean Cmax of total silybin (parent plus sulfate and glucuronide conjugates) [3]
1 | O=c1cc(-c2ccccc2)oc2cc(O)c(O)c(O)c12 [baicalein] | 20.6 µM | 21.2 µM | 1.46 |  |  | 
2 | COc1cc([C@H]2Oc3cc([C@H]4Oc5cc(O)cc(O)c5C(=O)[C@@H]4O)ccc3O[C@@H]2CO)ccc1O [silybin A] |  |  |  | about 97% | 26 ± 13 ng/mL | 1109 ± 158 ng/mL
3 | COc1cc([C@@H]2Oc3cc([C@H]4Oc5cc(O)cc(O)c5C(=O)[C@@H]4O)ccc3O[C@H]2CO)ccc1O [silybin B] |  |  |  | ~99% | 16 ± 5 ng/mL | 2478 ± 284 ng/mL
4 | COc1ccc(-c2cc(=O)c3c(OC)c(OC)c(OC)c(OC)c3o2)cc1 [tangeretin] | 6.88 µM | 8.84 µM | 1.54 |  |  | 
